Measured values taken from patent publication US5070210A, “Novel ketenimines as intermediates for insecticides” (ICI Americas Inc., priority 1990, dated 1991).

Assays:
Format in all cases: in vivo
[1] = test system: Tobacco Budworm [Heliothis virescens (Fabricius)] eggs; experiment: Tobacco budworm egg test; conditions: 2-day old eggs, percent in solution
How it was run: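 LC50 values (percent test compound in the dip solution) were calculated from dosage-mortality curves. Egg patches, 2 days old, were dipped in acetone solutions at concentrations from 0.1% downward and held at 78° F on rearing medium until control larvae hatched and fed.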

[2] = test system: Aster Leafhopper [Macrosteles fascifrens (Stal)]; experiment: Aster leafhopper insecticidal test; conditions: adults/nymphs, percent in solution; 48 hours
How it was run: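 Three ~10 cm oat seedlings per cup were dipped 2-3 seconds in 50-50 acetone-water compound solutions, dried, and caged with ten adult/nymph leafhoppers. Mortality was counted after 48 hours at concentrations from 0.05% downward. LC50, as percent compound in solution, came from dosage-mortality curves.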

[3] = test system: Housefly [Musca domestica]; experiment: Housefly insecticidal test; conditions: μg per 25 female flies; mortality after 48 hours
How it was run: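 Residual contact test: acetone dilution, 0.01% peanut oil spreader, solvent evaporated; 25 ♀ flies (1-2 d old) per cage; sugar-water plug; 48 h mortality read. LC50 in μg/25 female flies, from dose-mortality curves; top dose 100 μg/25 flies.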

[4] = test system: Maize weevil [Sitophilus Zeamais (Motschulsky)]; experiment: Maize weevil insecticidal test; conditions: adult weevils, percent in solution; 48 hours
How it was run: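 LC50, in percent of compound in solution, was derived from dosage-mortality curves after 48 h at about 25 °C. Ten adult weevils per container fed on four corn seeds briefly immersed in acetone:water (50:50) solutions of up to 0.01% and dried.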

[5] = test system: Cabbage Looper [Trichoplusia ni (Hubner)]; experiment: Cabbage looper insecticidal test; conditions: second-instar larvae, percent in solution; 3-5 days
How it was run: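 Leaf dip, squash cotyledons, 50-50 acetone-water, top dose 0.1% and lower. 5 second-instar larvae/dish, moist filter paper, high-humidity chamber. Mortality at 3-5 d; LC50 (% in solution) from dosage-mortality curves.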

SMILES | LC50, TBW, E (TBW-E) [1] [%] | LC50, LH [2] [%] | LC50, HF [3] [µg] | LC50, MW [4] [%] | LC50, CL [5] [%]
CC(C)C(=Nc1ccc(C(F)(F)F)cc1)OCc1cccc(Cc2ccccc2)c1 [Compound 535] | > 0.1 | > 0.05 | 41 | > 0.01 | > 0.1
CC(C)C(=Nc1ccc(F)c(Cl)c1)OCc1cc(Oc2ccc(Cl)cc2)ccn1 [Compound 516] | > 0.1 | > 0.05 | > 100 | > 0.01 | 0.008
Cc1cc(N=C(OCc2ccc(F)c(Oc3ccc(F)cc3)c2)C(C)C)ccc1Br [Compound 359] | 0.023 | 0.05 | < 100 | > 0.01 | > 0.1
CC(C)C(=Nc1ccc(Cl)c(Cl)c1)OCc1cccc(Nc2ccc(F)cc2)c1 [Compound 514] | > 0.1 | > 0.05 | > 100 | > 0.01 | 0.008
CC(C)C(=Nc1ccccc1Br)OCc1cccc(Oc2ccccc2)c1 [Compound 132] | > 0.1 | > 0.05 | 65 | > 0.01 | 0.025
CC(C)C(=Nc1ccc2c(c1)OCO2)OCc1cccc(Oc2ccc(Cl)cn2)c1 [Compound 532] | > 0.1 | > 0.05 | > 100 | > 0.01 | < 0.1
CC(C)(C)C(=Nc1ccc(Cl)c(Cl)c1)OCc1cccc(Oc2ccccc2)c1 [Compound 25] | > 0.1 | > 0.05 | > 100 | > 0.01 | 0.01
CC(C)C(=Nc1cccc(C(F)(F)F)c1)OCc1cccc(Oc2ccc(Cl)cn2)c1 [Compound 518] | > 0.1 | > 0.05 | > 100 | > 0.01 | 0.00075
c1ccc(Oc2cccc(COC(=Nc3ccc4c(c3)OCO4)C3CC3)c2)cc1 [Compound 177] | > 0.1 | > 0.05 | 13 | 0.01 | 0.002
CSc1ccc(Oc2cccc(COC(=Nc3ccc(F)c(Cl)c3)C(C)C)c2)cc1 [Compound 256] | 0.1 | > 0.05 | > 100 | > 0.01 | 0.007
COC(=O)c1ccc(N=C(OCc2cccc(Oc3ccccc3)c2)C(C)C)cc1 [Compound 151] | > 0.1 | > 0.05 | 38 | > 0.01 | 0.009
CC(C)(F)C(=Nc1ccc(F)c(Cl)c1)OCc1cc(Oc2ccc(F)cc2)ccc1F [Compound 316] | > 0.1 | > 0.05 | 100 | > 0.01 | 0.0015
